# Results reported in article PMC7169394, “Binding Constants of Substituted Benzoic Acids with Bovine Serum Albumin” (Pharmaceuticals, 2020).
# Like-named read-outs stand apart in the source and are kept apart here.
# Tests used:
# BSA [1] = conditions: SF, 298 K; cited from earlier work
# [2] = tested on: human serum albumin (HSA); conditions: SF, 298 K; cited from earlier work
# [3] = target: bovine serum albumin (BSA) (Bos taurus, UniProt P02769); test: biochemical; format: binding
# BSA [4] = tested on: BSA; parameters: method as in PMID 5677620; conditions: SP, 310 K; cited from earlier work
# BSA [5] = conditions: UC, cited from earlier work
# BSA [6] = conditions: CE, 298 K; cited from earlier work
# BSA [7] = tested on: BSA; parameters: method as in PMID 27098963; conditions: ED, 310 K; cited from earlier work
# [8] = tested on: human serum albumin (HSA); parameters: method as in PMID 3664856; conditions: UC, 288 K; cited from earlier work
# [9] = 298 K, phosphate buffer pH 7.4, 0.05 M, BSA about 1 µM, 1:1 model, standard state 1 M, […], read-out: K∙10^−4 (binding constant with BSA, final corrected value) (converted)
# [10] = 298 K, phosphate buffer pH 7.4, 0.05 M, BSA about 1 µM, 1:1 model, standard state 1 M, value is K multiplied by 10^−4, read-out: K∙10^−4 (binding constant with BSA, final corrected value) (converted)
# bovine serum albumin (BSA), sequence (P02769 25-607): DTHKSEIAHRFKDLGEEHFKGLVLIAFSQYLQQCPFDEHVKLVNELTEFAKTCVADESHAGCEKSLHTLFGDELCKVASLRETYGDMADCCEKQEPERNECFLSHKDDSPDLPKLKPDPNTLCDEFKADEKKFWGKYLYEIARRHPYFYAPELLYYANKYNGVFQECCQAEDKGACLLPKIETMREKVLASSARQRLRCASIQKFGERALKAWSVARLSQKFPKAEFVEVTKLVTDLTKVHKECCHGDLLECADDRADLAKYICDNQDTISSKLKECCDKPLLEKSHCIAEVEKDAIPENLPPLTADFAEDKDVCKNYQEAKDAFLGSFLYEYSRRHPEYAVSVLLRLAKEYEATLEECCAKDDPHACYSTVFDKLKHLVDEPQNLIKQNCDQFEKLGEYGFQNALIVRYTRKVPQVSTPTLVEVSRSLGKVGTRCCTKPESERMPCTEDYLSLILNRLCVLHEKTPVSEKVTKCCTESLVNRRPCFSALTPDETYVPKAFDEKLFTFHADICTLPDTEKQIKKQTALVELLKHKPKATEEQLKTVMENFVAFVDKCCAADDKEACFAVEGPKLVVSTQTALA
smiles,measurement,setting,value
"O=C(O)c1ccc(O)cc1O [2,4-dihydroxybenzoic acid]",K·10^−4 BSA,BSA [1],<0.1 (SF) [11]
same,K·10^−4 HSA,[2],0.16 (SF) [10]
same,Kd,[3],32.3 µM
Nc1ccccc1C(=O)O [2-aminobenzoic acid],Kd,[3]; [9],43.5 µM
same,K·10^−4 BSA,BSA [4],"0.63 (SP, 310 K) [9]"
O=C(O)c1ccccc1Br [2-bromobenzoic acid],Kd,[3],43.5 µM
same,K·10^−4 BSA,BSA [5]; 310 K,"3.98 (UC, 310 K) [9]"
N#Cc1ccccc1C(=O)O [2-cyanobenzoic acid],Kd,[3],38.5 µM
O=C(O)c1ccccc1F [2-fluorobenzoic acid],Kd,[3]; [9],30.3 µM
O=C(O)c1ccccc1O [2-hydroxybenzoic acid],K·10^−4 BSA,BSA [1],7.38
same,K·10^−4 HSA,[2],190
same,K·10^−4 BSA,BSA [6],3.92
same,K·10^−4 BSA,BSA [4],10.0
O=C(O)c1ccccc1I [2-iodobenzoic acid],Kd,[3]; [10],30.3 µM
O=C(O)c1ccccc1[N+](=O)[O-] [2-nitrobenzoic acid],Kd,[3],47.6 µM
Nc1cccc(C(=O)O)c1 [3-aminobenzoic acid],Kd,[3],71.4 µM
same,K·10^−4 BSA,BSA [4],"0.32 (SP, 310 K) [9]"
O=C(O)c1cccc(Br)c1 [3-bromobenzoic acid],Kd,[3]; [10],28.6 µM
same,K·10^−4 BSA,BSA [5]; 310 K,"63.1 (UC, 310 K) [9]"
O=C(O)c1cccc(Cl)c1 [3-chlorobenzoic acid],Kd,[3],17.2 µM
same,K·10^−4 BSA,BSA [7],"11.22 (ED, 310 K) [24]"
N#Cc1cccc(C(=O)O)c1 [3-cyanobenzoic acid],Kd,[3],25.6 µM
O=C(O)c1cccc(O)c1 [3-hydroxybenzoic acid],K·10^−4 BSA,BSA [1],0.85
same,K·10^−4 HSA,[2],0.34 (SF) [10]
same,Kd,[3],52.6 µM
same,K·10^−4 BSA,BSA [4],5.01
O=C(O)c1cccc(I)c1 [3-iodobenzoic acid],Kd,[3]; [10],19.6 µM
O=C(O)c1cccc([N+](=O)[O-])c1 [3-nitrobenzoic acid],Kd,[3]; [9],12.8 µM
O=C(O)c1ccc(Br)cc1 [4-bromobenzoic acid],Kd,[3]; [10],18.5 µM
same,K·10^−4 BSA,BSA [5]; 310 K,20.0
same,K·10^−4 BSA,BSA [7],20.42
N#Cc1ccc(C(=O)O)cc1 [4-cyanobenzoic acid],K·10^−4 BSA,BSA [5]; 288 K,"1.66 (UC, 288 K) [8]"
O=C(O)c1ccc(O)cc1 [4-hydroxybenzoic acid],K·10^−4 BSA,BSA [1],< 0.1
same,K·10^−4 HSA,[2],< 0.1
same,Kd,[3],100 ± 10 µM
same,K·10^−4 BSA,BSA [5]; 288 K,0.68
same,K·10^−4 BSA,BSA [4],0.79
same,K·10^−4 HSA,[8],0.45
O=C(O)c1ccc(I)cc1 [4-iodobenzoic acid],Kd,[3]; [10],24.4 µM
Cc1ccc(C(=O)O)cc1 [4-methylbenzoic acid],K·10^−4 BSA,BSA [1],< 0.1
same,K·10^−4 HSA,[2],0.35
same,Kd,[3],71.4 µM
same,K·10^−4 BSA,BSA [5]; 288 K,6.76
same,K·10^−4 BSA,BSA [7],3.16
same,K·10^−4 BSA,BSA [4],7.94
same,K·10^−4 HSA,[8],3.63
O=C(O)c1ccc([N+](=O)[O-])cc1 [4-nitrobenzoic acid],Kd,[3],12.3 µM
same,K·10^−4 BSA,BSA [5]; 288 K,6.03
same,K·10^−4 BSA,BSA [7],3.09
same,K·10^−4 HSA,[8],"8.13 (UC, 288 K) [8]"
O=C(O)c1ccccc1 [benzoic acid],Kd,[3],52.6 µM
same,K·10^−4 BSA,BSA [5]; 288 K,2.24
same,K·10^−4 BSA,BSA [7],1.15
same,K·10^−4 BSA,BSA [4],5.01
same,K·10^−4 HSA,[8],"2.29 (UC, 288 K) [8]"
